This passage reports IC50 results from patent publication US20140107109A1, “AMINO-DIHYDROTHIAZINE AND AMINO-DIOXIDO DIHYDROTHIAZINE COMPOUNDS AS BETA-SECRETASE ANTAGONISTS AND METHODS OF USE” (Amgen Inc., priority 2012, published 2014).

pIC50: −log10 of the molar value. Like-named read-outs stand apart in the source and are kept apart here.

Assay [1] has as its system Aβ40 in conditioned medium of cells stably expressing Amyloid Precursor Protein (APP). In words: In vitro BACE cell-based assay (HEK cell assay), Aβ40 sandwich ELISA. Put shortly:
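APP-stably expressing cells (40K/well, grown 24 h in DMEM/10% FBS) were treated 24 h with compounds in 10-point dose response starting at 100 μM or 10 μM, 0.1% DMSO final. Secreted Aβ40 was measured by sandwich ELISA (pAb40 capture, biotinylated 6E10 detection, europium time-resolved fluorescence); IC50 from percent inhibition.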
For orientation: An ELISA detects its analyte on a solid surface through an enzyme-linked reagent.

Assay [2] has as its target Beta Secretase enzyme (BACE1) (Homo sapiens, UniProt P56817). In words: In vitro enzymatic BACE FRET assay. It is filed as biochemical. The note with it: read-out: BACE1 FRET assay IC50. On the procedure: In Vitro Enzymatic BACE FRET (Fluorescence Resonance Energy Transfer) Assay (Enzyme Assay Data in the Example Tables I and II)
The assay buffer used in this screen is 0.05 M acetate, pH 4.2, 10% DMSO final, 100 uM genapol (which is a nonionic detergent, below its Critical Micelle Concentration). […] This assay is effectively started by the addition of FRET substrate (50 nM) and the combination is incubated for one hour. The FRET assay is terminated with by addition of Tris buffer, which raises the pH to neutrality, and the fluorescence is determined. The FRET substrate is a peptide with commercially available fluorophore and quencher, on opposite sides of the BACE cleavage site. Proteolytic cleavage of the FRET substrate releases quenching of fluorescence (excitation […] and […]).

The next assay addresses T1, Cathepsin D (Cat D) (Homo sapiens, UniProt P07339).
T1 construct: Recombinant Cat D was expressed in CHO cells; made in house; host or cells: CHO cells
In words: In vitro enzymatic Cathepsin D (Cat D) FRET assay. It counts as biochemical. On the procedure: In Vitro Enzymatic Cathepsin D (Cat D) FRET (Fluorescence Resonance Energy Transfer) Assay Recombinant Cat D was expressed in CHO cells. […] The Cat D enzyme (9 nM) is pre-incubated for one hour with inhibitors, typically in about 1 uL of DMSO according to a serial dilution, is added thereto. […] The FRET assay is terminated with by addition of Tris buffer, which raises the pH to neutrality, and the fluorescence is determined. The FRET substrate is a peptide with commercially available fluorophore and quencher, on opposite sides of the BACE cleavage site. The Cat D substrate peptide sequence is based on sequence #1 of Table 1 from Gulnik et al. […] Alternatively, a Cat D assay may also be run according to the procedure described in the article, Characterization of new fluorgenic substrates for the rapid and sensitive assay of cathepsin E and cathepsin D, J. Biochem., 125:1137, 1999. In addition, the cathepsin D and cathepsin E assays are described in PCT publication WO2011069934. This WIPO publication describes BACE inhibitor compounds having an amide linker connecting two aromatic groups with extremely poor cathepsin D and/or cathepsin E inhibitory activity (see Table 2). Where available, the in-vitro Cat D FRET assay data for each of the Examples, conducted by the first procedure, is provided.

The mark [3] stands for this setting: Homo sapiens, HEK293, average IC50, HEK cell assay.
The mark [4] stands for this setting: Homo sapiens, HEK293, average IC50, cell assay.

Sequence of Beta Secretase enzyme (BACE1) (P56817 46-501): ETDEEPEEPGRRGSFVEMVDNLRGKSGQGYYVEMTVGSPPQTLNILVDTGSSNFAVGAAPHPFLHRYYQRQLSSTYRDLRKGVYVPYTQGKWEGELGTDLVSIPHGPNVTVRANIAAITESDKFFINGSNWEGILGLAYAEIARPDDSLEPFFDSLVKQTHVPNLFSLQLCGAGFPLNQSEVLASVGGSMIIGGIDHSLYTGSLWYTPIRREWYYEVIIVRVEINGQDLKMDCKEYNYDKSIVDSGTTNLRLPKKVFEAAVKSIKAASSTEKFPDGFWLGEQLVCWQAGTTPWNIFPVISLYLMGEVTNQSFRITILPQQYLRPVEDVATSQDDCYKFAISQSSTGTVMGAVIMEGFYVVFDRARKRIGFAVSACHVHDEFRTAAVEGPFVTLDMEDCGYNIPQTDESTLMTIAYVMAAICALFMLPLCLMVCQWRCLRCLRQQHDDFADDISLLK
T1 sequence (P07339 65-412, species assumed): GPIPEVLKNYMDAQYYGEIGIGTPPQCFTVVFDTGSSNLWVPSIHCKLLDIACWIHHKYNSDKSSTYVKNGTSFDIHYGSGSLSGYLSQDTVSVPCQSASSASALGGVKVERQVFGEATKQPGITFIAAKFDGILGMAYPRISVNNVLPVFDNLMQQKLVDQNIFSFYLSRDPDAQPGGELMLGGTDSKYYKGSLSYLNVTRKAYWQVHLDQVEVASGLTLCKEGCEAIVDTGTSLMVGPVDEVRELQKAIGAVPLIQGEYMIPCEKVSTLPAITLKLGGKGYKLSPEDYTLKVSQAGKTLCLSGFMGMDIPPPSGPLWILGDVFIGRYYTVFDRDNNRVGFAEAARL

On to `CC#CCOc1cnc(C(=O)Nc2cnc(F)c([C@]3(C)CS(=O)(=O)C4(CCC4)C(N)=N3)c2)c(C)c1` [Example 349, N-(5-((7R)-9-amino-7-methyl-5,5-dioxido-5-thia-8-azaspiro[3.5]non-8-en-7-yl)-6-fluoro-3-pyridinyl)-5-(2-butyn-1-yloxy)-3-methyl-2-pyridinecarboxamide], for which the pIC50 in assay [1] (setting [3]) is 8.89; in assay [2] (average IC50, enzyme assay), 9.11; on Cathepsin D (Cat D) (read-out: CatD IC50), 3.71.
For `COc1cnc2c(Nc3ccc(F)c([C@]4(C)CS(=O)(=O)C5(CC(F)(F)C5)C(N)=N4)c3)nccc2n1` [Example 128, (R)-9-amino-2,2-difluro-7-(2-fluoro-5-((2-methoxypyrido[3,4b]pyrazin-5-yl)amino)phenyl)-7-methyl-5-thia-8-azaspiro[3.5]non-8-ene 5,5-dioxide], the pIC50 in assay [1] (setting [4]) is 6.70; in assay [2] (average IC50, enzyme assay) it was 7.59; on Cathepsin D (Cat D) (read-out: CatD IC50), 3.48.
On to `CC1(C)C(N)=N[C@](C)(c2cc(Oc3cc(N)nc(N)n3)ccc2F)CS1(=O)=O` [Example 268, 6-(3-((3R)-5-amino-3,6,6-trimethyl-1,1-dioxido-3,6-dihydro-2H-1,4-thiazin-3-yl)-4-fluorophenoxy)-2,4-pyrimidinediamine], for which the pIC50 in assay [1] (setting [4]) is 6.52; in assay [2] (average IC50, enzyme assay) it was 6.50; on Cathepsin D (Cat D) (read-out: CatD IC50), 3.04.
In the case of `COc1cc(Cl)cnc1C(=O)Nc1ccc(F)c([C@]2(CF)CS(=O)(=O)C3(CCC3)C(N)=N2)c1` [Example 375, N-(3-((7S)-9-amino-7-(fluoromethyl)-5,5-dioxido-5-thia-8-azaspiro[3.5]non-8-en-7-yl)-4-fluorophenyl)-5-chloro-3-methoxy-2-pyridinecarboxamide], the pIC50 in assay [1] (Homo sapiens, HEK293) is 7.53; in assay [2], 8.54; on Cathepsin D (Cat D) (read-out: CatD IC50), 3.11.
Turning to `COc1cnc2c(Nc3cnc(F)c([C@]4(C)CS(=O)(=O)C(C)(C)C(N)=N4)c3)ncc(F)c2c1` [Example 219, N-(5-((3R)-5-amino-3,6,6-trimethyl-1,1-dioxido-3,6-dihydro-2H-1,4-thiazin-3-yl)-6-fluoro-3-pyridinyl)-5-fluoro-3-methoxy-1,7-naphthyridin-8-amine], the pIC50 is 8.54 in assay [1] (setting [4]); 8.84 in assay [2] (average IC50, enzyme assay); 4.40 on Cathepsin D (Cat D) (read-out: CatD IC50).
For `CC1(C)C(N)=N[C@](C)(c2cc(Sc3ccccn3)ccc2F)CS1(=O)=O` [Example 163, (R)-5-amino-3-(2-fluoro-5-(pyridin-2-ylthio)phenyl)-3,6,6-trimethyl-3,6-dihydro-2H-1,4-thiazine 1,1-dioxide] the same measures were 5.63, 5.49 and 4.13.
As for `CC1(C)C(N)=N[C@](C)(c2cc(Nc3nccc4cc(Cl)cnc34)cnc2F)CS1(=O)=O` [Example 223, N-(5-((3R)-5-amino-3,6,6-trimethyl-1,1-dioxido-3,6-dihydro-2H-1,4-thiazin-3-yl)-6-fluoro-3-pyridinyl)-3-chloro-1,7-naphthyridin-8-amine], the pIC50 was 8.27 in assay [1] (setting [4]); 9.09 in assay [2] (average IC50, enzyme assay); 4.62 on Cathepsin D (Cat D) (read-out: CatD IC50).
In the same order, the values of `C[C@]1(c2cc(Nc3nccc4cc(C#N)cnc34)ccc2F)N=C(N)C2(CCC2)S(=O)(=O)C1F` (stereo partly drawn) [Example 251, 8-((3-((7R)-9-amino-6-fluoro-7-methyl-5,5-dioxido-5-thia-8-azaspiro[3.5]non-8-en-7-yl)-4-fluorophenyl)amino)-1,7-naphthyridine-3-carbonitrile] are 7.87, 9.24 and 4.37.
In the case of `C[C@]1(F)C(N)=N[C@](C)(c2cc(NC(=O)c3cnc(OCC(F)(F)F)cn3)ccc2F)CS1(=O)=O` [Example 325, N-(3-((3R,6R)-5-amino-6-fluoro-3,6-dimethyl-1,1-dioxido-3,6-dihydro-2H-1,4-thiazin-3-yl)-4-fluorophenyl)-5-(2,2,2-trifluoroethoxy)-2-pyrazinecarboxamide], the pIC50 in assay [1] (setting [3]) was 7.35; in assay [2] (average IC50, enzyme assay), 9.38; at Cathepsin D (Cat D) (read-out: CatD IC50), 2.90.
Turning to “N-(3-((7R)-9-amino-7-(fluoromethyl)-5,5-dioxido-5-thia-8-azaspiro[3.5]non-8-en-7-yl)-4-fluorophenyl)-5-(difluoromethoxy)-3-methyl-2-pyridinecarboxamide, N-(3-((7S)-9-amino-7-(fluoromethyl)-5,5-dioxido-5-thia-8-azaspiro[3.5]non-8-en-7-yl)-4-fluorophenyl)-5-(difluoromethoxy)-3-methyl-2-pyridinecarboxamide [Example 410]”, the pIC50 in assay [1] was 7.92; in assay [2], 8.64; at Cathepsin D (Cat D) (read-out: CatD IC50), 3.77.
As for `COc1cnc2c(Nc3ccc(F)c([C@]4(CF)CS(=O)(=O)C(C)(C)C(N)=N4)c3)nccc2n1` [Example 447, N-(3-((3S)-5-amino-3-(fluoromethyl)-6,6-dimethyl-1,1-dioxido-3,6-dihydro-2H-1,4-thiazin-3-yl)-4-fluorophenyl)-2-methoxypyrido[3,4-b]pyrazin-5-amine], the pIC50 in assay [1] (setting [4]) is 7.85; in assay [2] (average IC50, enzyme assay), 9.06; at Cathepsin D (Cat D) (read-out: CatD IC50) it was 2.95.
For `CC1(C)C(N)=N[C@](C)(c2cc(Nc3nncc4cc(C#N)cnc34)ccc2F)CS1(=O)=O` [Example 162, (R)-8-((3-(5-amino-3,6,6-trimethyl-1,1-dioxido-3,6-dihydro-2H-1,4-thiazin-3-yl)-4-fluorophenyl)amino)pyrido[2,3-d]pyridazine-3-carbonitrile], the pIC50 in assay [1] (setting [4]) is 8.82; in assay [2] (average IC50, enzyme assay), 8.64; at Cathepsin D (Cat D) (read-out: CatD IC50) it was 3.38.
As to `Cc1cc(C(F)F)cnc1C(=O)Nc1ccc(F)c([C@@]2(C)N=C(N)C3(CC3)S(=O)(=O)[C@@H]2F)c1` [Example 206, N-(3-((5S,6R)-8-amino-5-fluoro-6-methyl-4,4-dioxido-4-thia-7-azaspiro[2.5]oct-7-en-6-yl)-4-fluorophenyl)-5-(difluoromethyl)-3-methyl-2-pyridinecarboxamide], the pIC50 in assay [1] (Homo sapiens, HEK293, average IC50, HEK cells) is 8.27; in assay [2] (average IC50), 8.72; at Cathepsin D (Cat D) (read-out: CatD IC50), 3.71.
Consider `Cc1nc(F)c([C@]2(C)CS(=O)(=O)C(C)(C)C(N)=N2)cc1Br` [Example 184, (R)-5-Amino-3-(5-bromo-2-fluoro-6-methylpyridin-3-yl)-3,6,6-trimethyl-3,6-dihydro-2H-1,4-thiazine 1,1-dioxide], for which the pIC50 is 5.40 in assay [1] (setting [4]); 5.09 in assay [2] (average IC50, enzyme assay); 3.90 against Cathepsin D (Cat D).
`C[C@@]1(c2cc(Nc3nccc4cc(C#N)cnc34)ccc2F)CS(=O)(=O)C2(CCC2)C(N)=N1` [Example 117, (R)-8-((3-(9-amino-7-methyl-5,5-dioxido-5-thia-8-azaspiro[3.5]non-8-en-7-yl)-4-fluorophenyl)amino)-1,7-naphthyridine-3-carbonitrile]: the negative-log IC50 (pIC50) in assay [1] (setting [4]) is 8.29; in assay [2] (average IC50, enzyme assay) it was 8.72; on Cathepsin D (Cat D) (read-out: CatD IC50), 4.55.
Regarding `Cc1cc(Cl)cnc1C(=O)Nc1ccc(F)c([C@@]2(C)N=C(N)C(C)(C)S(=O)(=O)C2F)c1` (stereo partly drawn) [Example 331, N-(3-((3R)-5-amino-2-fluoro-3,6,6-trimethyl-1,1-dioxido-3,6-dihydro-2H-1,4-thiazin-3-yl)-4-fluorophenyl)-5-chloro-3-methyl-2-pyridinecarboxamide], the pIC50 in assay [1] (setting [3]) is 8.32; in assay [2] (average IC50, enzyme assay), 9.52; at Cathepsin D (Cat D) (read-out: CatD IC50) it was 3.73.
`CC1(C)C(N)=N[C@](C)(c2cc(Sc3cc(C#N)ccn3)ccc2F)CS1(=O)=O` [Example 440, 2-((3-((3R)-5-amino-3,6,6-trimethyl-1,1-dioxido-3,6-dihydro-2H-1,4-thiazin-3-yl)-4-fluorophenyl)sulfanyl)-4-pyridinecarbonitrile]: the pIC50 in assay [1] (setting [4]) was 6.17; in assay [2] (average IC50, enzyme assay), 6.25; on Cathepsin D (Cat D) (read-out: CatD IC50), 3.66.
For `C[C@@]1(c2cc(N)cnc2F)CS(=O)(=O)C2(CCC2)C(N)=N1` [Example 415, (7R)-7-(5-amino-2-fluoro-3-pyridinyl)-7-methyl-5-thia-8-azaspiro[3.5]non-8-en-9-amine 5,5-dioxide], the pIC50 in assay [1] (Homo sapiens, HEK293) is < 4.81; in assay [2] it was 4.84; on Cathepsin D (Cat D) (read-out: CatD IC50) it was 3.98.

By pIC50 is commonly meant the negative decadic logarithm of the IC50, by convention in mol/L.
